Measured values taken from ChEMBL document CHEMBL4043210, “Synthesis of amide isosteres of schweinfurthin-based stilbenes” (2017).

Test: Growth inhibition of human NCI60 cells by sulforhodamine B assay
Format: functional

**Q.** For `COc1cc(NC(=O)c2cc(O)c(C/C=C(\C)CCC=C(C)C)c(O)c2)cc2c1O[C@]1(C)CC[C@@H](O)C(C)(C)[C@H]1C2`, which GI50 is on record?
**A.** The GI50 was 1100 nM.

**Q.** With `COc1cc(C(=O)Nc2cc(OC)c3ccn(C)c3c2)cc2c1O[C@]1(C)CC[C@@H](O)C(C)(C)[C@H]1C2` as the compound, how does the GI50 read?
**A.** Its GI50 is 660 nM.

**Q.** With `COc1cc(NC(=O)c2cc(OC)c3ccn(C)c3c2)cc2c1O[C@]1(C)CC[C@@H](O)C(C)(C)[C@H]1C2` as the compound, how does the GI50 read?
**A.** Its GI50 is 6600 nM.

**Q.** With `COc1cc(/C=C/c2cc(O)c(C/C=C(\C)CCC=C(C)C)c(O)c2)cc2c1O[C@]1(C)CC[C@@H](O)C(C)(C)[C@H]1C2` [3-DEOXYSCHWEINFURTHIN B] as the compound, how does the GI50 read?
**A.** Its GI50 is 870 nM.

**Q.** Which GI50 does the source give for `COc1cc(C(=O)Nc2cc(O)c(C/C=C(\C)CCC=C(C)C)c(O)c2)cc2c1O[C@]1(C)CC[C@@H](O)C(C)(C)[C@H]1C2` here?
**A.** Its GI50 is 210 nM.

**Q.** Which GI50 does the source give for `CC(C)=CCC/C(C)=C/Cc1c(O)cc(/C=C/c2cc(O)c3c(c2)C[C@@H]2C(C)(C)[C@H](O)[C@H](O)C[C@@]2(C)O3)cc1O` [SCHWEINFURTHIN A] here?
**A.** Its GI50 is 360 nM.
